Laboratory results reported in the supplement of paper PMC9386025.

How the values were obtained:
Test in all cases: drug sensitivity score (DSS) (DSS (dimensionless)); higher = more sensitive (stronger drug response)
OVSAHO = test system: OVSAHO
Method in brief: (§1)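 Drugs were pre-plated in 384-well plates at five concentrations covering a 10,000-fold range, and 1 000 – 1 500 cells per well were added from patient-derived cultures or from ovarian cancer cell lines whose shRNA had been induced with 100 ng/ml doxycycline for three days or longer. Incubation lasted three days at 37 °C under 5.0 % CO2. A PHERAstar FS then recorded CellTiter-Glo luminescence as the readout of viability. A drug sensitivity score, calculated as described before, summarised the dose-response curve of every drug.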

FIMM-PDC5 = patient-derived ovarian cancer cells; settings: genetic perturbation: none (patient-derived cell culture)
Method in brief: as §1

FIMM-PDC3 = patient-derived ovarian cancer cells; settings: genetic perturbation: none (patient-derived cell culture)
Method in brief: as §1

FIMM-PDC6 = patient-derived ovarian cancer cells; settings: genetic perturbation: none (patient-derived cell culture)
Method in brief: as §1

FIMM-PDC7 = patient-derived ovarian cancer cells; settings: genetic perturbation: none (patient-derived cell culture)
Method in brief: as §1

FIMM-PDC4 = patient-derived ovarian cancer cells; settings: genetic perturbation: none (patient-derived cell culture)
Method in brief: as §1

Kuramochi = test system: Kuramochi
Method in brief: as §1

FIMM-PDC1 = patient-derived ovarian cancer cells; settings: genetic perturbation: none (patient-derived cell culture)
Method in brief: as §1

JHOS2 = test system: JHOS2
Method in brief: as §1

[1] = genetic perturbation: DOX-induced PTK7 shRNA knockdown
[2] = genetic perturbation: DOX-induced control shRNA

Row | SMILES | drug sensitivity score (OVSAHO; [1]) | drug sensitivity score (OVSAHO; [2]) | drug sensitivity score (FIMM-PDC5) | drug sensitivity score (FIMM-PDC3) | drug sensitivity score (FIMM-PDC6) | drug sensitivity score (FIMM-PDC7) | drug sensitivity score (FIMM-PDC4) | drug sensitivity score (Kuramochi; [1]) | drug sensitivity score (Kuramochi; [2]) | drug sensitivity score (FIMM-PDC1) | drug sensitivity score (JHOS2; [1]) | drug sensitivity score (JHOS2; [2])
1 | COc1ccc(-c2nc(N3CCOCC3)c3sc(CN(C)c4ncc(C(=O)NO)cn4)cc3n2)cn1 [CUDC-907] | 27.8 | 31 | 34.5 | 34.3 | 29.9 | 25.9 | 22.7 | 33.1 | 27.7 | 29.9 | 31.3 | 28.1
2 | CO[C@H]1C(=O)[C@]2(C)[C@@H](OC)C[C@H]3OC[C@@]3(OC(C)=O)[C@H]2[C@H](OC(=O)c2ccccc2)[C@]2(O)C[C@H](OC(=O)[C@H](O)[C@@H](NC(=O)OC(C)(C)C)c3ccccc3)C(C)=C1C2(C)C [Cabazitaxel] | 12.3 | 15.3 | 23.5 | 21.9 | 8.7 | 12.7 | 23.9 | 19.6 | 3.8 | 17.4 | 20.4 | 13.8
3 | C=CC(=O)Nc1cc2c(Nc3ccc(F)c(Cl)c3)ncnc2cc1OCCCN1CCOCC1 [Canertinib] | 8.2 | 7.6 | 27.5 | 15.7 | 20.8 | 12.1 | 20.4 | 8.9 | 8.6 | 7.4 | 8.1 | 7.4
4 | O=C(O)C1(C(=O)O)CCC1.[NH2-].[NH2-].[Pt+2] [Carboplatin] | 8.7 | 2.7 | 3.8 | 16.2 | 2.8 | 2.4 | 3.2 | 4.4 | 4.7 | 2.55 | 7.6 | 5.3
5 | CC(C)C[C@H](NC(=O)[C@H](CCc1ccccc1)NC(=O)CN1CCOCC1)C(=O)N[C@@H](Cc1ccccc1)C(=O)N[C@@H](CC(C)C)C(=O)[C@@]1(C)CO1 [Carfilzomib] | 24.9 | 20.5 | 23.6 | 28.3 | 29.3 | 26.1 | 22.2 | 21.9 | 25 | 26.6 | 25.2 | 23.7
6 | CCS(=O)(=O)N1CCN(c2ccc(Nc3ncc(C(N)=O)c(NC4CC4)n3)cc2)CC1 [Cerdulatinib] | < 0 | < 0 | < 0 | < 0 | < 0 | 5.3 | < 0 | < 0 | < 0 | < 0 | 8.2 | < 0
7 | CC(C)[C@H]1C(=O)N[C@@H](CCCNC(=N)N)C(=O)NCC(=O)N[C@@H](CC(=O)O)C(=O)N[C@H](Cc2ccccc2)C(=O)N1C [Cilengitide] | 9.6 | 6.1 | < 0 | < 0 | < 0 | 1.3 | < 0 | 8.65 | 3 | 0.75 | 5 | 0.9
8 | N.N.[Cl][Pt][Cl] [Cisplatin] | 17.6 | 5.1 | 5.4 | 18.9 | 9.8 | 4.7 | 5.7 | 14.2 | 7 | 4.8 | 14.9 | 4.1
9 | Nc1nc(Cl)nc2c1ncn2[C@@H]1O[C@H](CO)[C@@H](O)[C@@H]1F [Clofarabine] | 2.5 | 3.4 | 13.6 | 6.1 | 3.2 | 3.2 | 7.4 | < 0 | < 0 | 3.15 | 15.1 | 10.3
10 | CCN(CC)CCOc1ccc(C(=C(Cl)c2ccccc2)c2ccccc2)cc1 [Clomifene] | 5.2 | 4.2 | 8 | 5.7 | 5.2 | 7 | 7.5 | 5.45 | 2 | 7.05 | 6.9 | 4.1
11 | O=C(c1ccc(F)c(F)c1Nc1ccc(I)cc1F)N1CC(O)([C@@H]2CCCCN2)C1 [Cobimetinib] | 9 | 3.9 | 12.7 | 4.8 | 12 | 7.4 | 12.4 | 6.05 | 2.8 | < 0 | 0.8 | 11.1
12 | COc1c(OCCCN2CCOCC2)ccc2c1N=C(NC(=O)c1cnc(N)nc1)N1CCN=C21 [Copanlisib] | 7.8 | 10.5 | 17.3 | 6.2 | 10.2 | 11.1 | 12.4 | 6.95 | 4.6 | 7.3 | 4.4 | 5.8
13 | CC1(COc2ccc3c(c2)ncn3-c2ccc3cccc(N4CCC(N)CC4)c3n2)COC1 [Crenolanib] | 3.8 | 3.7 | 8.5 | 5.3 | 4 | 4.7 | 5 | 3.65 | 2.9 | 3.55 | 8.5 | 5.7
14 | COc1cc2ncnc(Nc3ccc(F)c(Cl)c3)c2cc1NC(=O)/C=C/CN1CCCCC1 [Dacomitinib] | 4.8 | 2.4 | 23.4 | 13.1 | 18 | 14 | 18.2 | 2.45 | 1.6 | 3.2 | < 0 | 2
15 | Cc1c2oc3c(C)ccc(C(=O)N[C@@H]4C(=O)N[C@H](C(C)C)C(=O)N5CCC[C@H]5C(=O)N(C)CC(=O)N(C)[C@@H](C(C)C)C(=O)O[C@@H]4C)c3nc-2c(C(=O)N[C@@H]2C(=O)N[C@H](C(C)C)C(=O)N3CCC[C@H]3C(=O)N(C)CC(=O)N(C)[C@@H](C(C)C)C(=O)O[C@@H]2C)c(N)c1=O [Dactinomycin] | 23.1 | 18 | 25.2 | 26.5 | 22.1 | 26 | 23.1 | 23.3 | 19.9 | 23.6 | 21.1 | 23.4
16 | Cn1c(=O)n(-c2ccc(C(C)(C)C#N)cc2)c2c3cc(-c4cnc5ccccc5c4)ccc3ncc21 [Dactolisib] | 11.8 | 13.8 | 21.6 | 11.1 | 19 | 17 | 17.2 | 11.7 | 11.9 | 10.1 | 10.3 | 14.1
17 | CO[C@@H](C(=O)N1Cc2[nH]nc(NC(=O)c3ccc(N4CCN(C)CC4)cc3)c2C1)c1ccccc1 [Danusertib] | 17.5 | 7.5 | 9.6 | 9.9 | 9.4 | 1.8 | 11.6 | 10.4 | 13 | 7.7 | 6.6 | 5.5
18 | Cc1nc(Nc2ncc(C(=O)Nc3c(C)cccc3Cl)s2)cc(N2CCN(CCO)CC2)n1 [Dasatinib] | 14.5 | 15 | 17.8 | 13.9 | 10.7 | 3.2 | 19 | 17.9 | 9.5 | 6.05 | 8.7 | 10.1
19 | COc1cccc2c1C(=O)c1c(O)c3c(c(O)c1C2=O)C[C@@](O)(C(C)=O)C[C@@H]3O[C@H]1C[C@H](N)[C@H](O)[C@H](C)O1 [Daunorubicin] | 8.3 | 4.4 | 10.7 | 7.8 | 7.4 | 9 | 8.4 | 4.2 | 4.6 | 4.65 | 4 | 5.6
20 | C[C@H]1O[C@@H](O[C@H]2[C@@H](O)C[C@H](O[C@H]3[C@@H](O)C[C@H](O[C@H]4CC[C@@]5(C)[C@H](CC[C@@H]6[C@@H]5C[C@@H](O)[C@]5(C)[C@@H](C7=CC(=O)OC7)CC[C@]65O)C4)O[C@@H]3C)O[C@@H]2C)C[C@H](O)[C@@H]1O [Digoxin] | 8.6 | 8 | 11.9 | 12 | 16.6 | 12.5 | 14.6 | 8.45 | 7.4 | 9.4 | 17.2 | 13
21 | CCc1cnn2c(NCc3ccc[n+]([O-])c3)cc(N3CCCC[C@H]3CCO)nc12 [Dinaciclib] | 24.8 | 16.4 | 24.6 | 17.5 | 22.5 | 22.4 | 20.3 | 18.5 | 15.9 | 20.8 | 17.4 | 19.6
22 | CC(=O)O[C@@]12CO[C@@H]1C[C@H](O)[C@@]1(C)C(=O)[C@H](O)C3=C(C)[C@@H](OC(=O)[C@H](O)[C@@H](NC(=O)OC(C)(C)C)c4ccccc4)C[C@@](O)([C@@H](OC(=O)c4ccccc4)[C@H]21)C3(C)C [Docetaxel] | 7.6 | 13.5 | 21.5 | 21.6 | 7.4 | 7.2 | 18.8 | 18 | 4.4 | 15.6 | 20.3 | 12.7
23 | COc1cccc2c1C(=O)c1c(O)c3c(c(O)c1C2=O)C[C@@](O)(C(=O)CO)C[C@@H]3O[C@H]1C[C@H](N)[C@H](O)[C@H](C)O1 [Doxorubicin] | 5.8 | 4.7 | 5.4 | 6.4 | 3.7 | 6.6 | 6.8 | 5.1 | 5 | 4.7 | 7 | 7.6
24 | Cc1ccc(NS(=O)(=O)c2cccc(C#N)c2)c2[nH]cc(C#N)c12 [E7820] | 3 | 1.1 | 6.4 | 18.3 | 5.9 | 12.2 | 3 | 2.4 | 1.5 | 2.9 | 9.6 | 9.5
25 | Cc1cc(Nc2cc(N3CCN(C)CC3)nc(/C=C/c3ccccc3)n2)n[nH]1 [ENMD-2076] | 11.5 | 7.9 | 12.4 | 8.6 | 3.4 | 4.2 | 10.5 | 9.65 | 8.1 | 6 | 8.3 | 9.4
26 | NC(=O)/C(=C/n1cnc(-c2cc(C(F)(F)F)cc(C(F)(F)F)c2)n1)c1cncnc1 [Eltanexor] | 17.8 | 9.5 | 22.4 | 23.7 | 25.8 | 17.8 | 19.9 | 12.4 | 17 | 14.7 | 18.9 | 17
27 | Nc1ccccc1NC(=O)c1ccc(CNC(=O)OCc2cccnc2)cc1 [Entinostat] | 8.5 | 4.6 | 8.2 | 9 | 6.6 | 6.5 | 4.5 | 8.05 | 2.3 | 7.1 | 4.5 | 2.5
28 | COc1cccc2c1C(=O)c1c(O)c3c(c(O)c1C2=O)C[C@@](O)(C(=O)CO)C[C@@H]3O[C@H]1C[C@H](N)[C@@H](O)[C@H](C)O1 [Epirubicin] | 5.8 | 5.2 | 5.6 | 6.6 | 3.5 | 7.4 | 7.9 | 4.45 | 3.9 | 4.2 | 7.1 | 6.1
29 | CCOc1ccccc1-n1c(C(C)N2CCN(C(=O)COc3ccc(Cl)cc3)CC2)nc2ccccc2c1=O (stereo not given) [Erastin] | 12.9 | 4.7 | < 0 | 17 | < 0 | 3.3 | < 0 | 4.8 | 8.5 | 0.85 | 14.6 | 16.2
30 | C=C1C[C@@H]2CC[C@@]34C[C@H]5O[C@H]6[C@@H](O3)[C@H]3O[C@H](CC[C@@H]3O[C@H]6[C@H]5O4)CC(=O)C[C@@H]3[C@@H](OC)[C@@H](C[C@H](O)CN)O[C@H]3C[C@H]3O[C@@H](CC[C@@H]1O2)C[C@@H](C)C3=C [Eribulin] | 18.6 | 15.3 | 25.5 | 20.7 | 12.3 | 12.2 | 21.1 | 18.6 | 5.7 | 15.9 | 19 | 11.7
